# In ChEMBL document CHEMBL1140790, “Determination of absolute stereochemistry, total synthesis, and evaluation of peptides from the myxomycete Physarum melleum” (Bioorg Med Chem Lett, 2008):
# The source made the active and inactive calls. The rule behind the calls is not given here.
# Assay: Inhibition of Wnt signal activity by luciferase superTOP-Flash gene assay
row,Activity,Compound
1,Active,COC(=O)C[C@H](O)[C@H](Cc1ccc(O)cc1)NC(=O)CNC(=O)[C@H](NC(=O)c1ccc(OC)cc1)[C@@H](C)O
2,inactive,COC(=O)C[C@H](O)[C@H](Cc1ccc(O)cc1)NC(=O)CNC(=O)[C@@H](NC(=O)c1ccc(OC)cc1)[C@@H](C)O
